{"source": "ChEMBL document CHEMBL5233266", "about": "“β-Carboline as a Privileged Scaffold for Multitarget Strategies in Alzheimer's Disease Therapy” (J Med Chem, 2021)", "key": {"[1]": {"biological_target": "5-hydroxytryptamine receptor 2B (Homo sapiens, UniProt P41595)", "sequence (P41595 whole entry)": "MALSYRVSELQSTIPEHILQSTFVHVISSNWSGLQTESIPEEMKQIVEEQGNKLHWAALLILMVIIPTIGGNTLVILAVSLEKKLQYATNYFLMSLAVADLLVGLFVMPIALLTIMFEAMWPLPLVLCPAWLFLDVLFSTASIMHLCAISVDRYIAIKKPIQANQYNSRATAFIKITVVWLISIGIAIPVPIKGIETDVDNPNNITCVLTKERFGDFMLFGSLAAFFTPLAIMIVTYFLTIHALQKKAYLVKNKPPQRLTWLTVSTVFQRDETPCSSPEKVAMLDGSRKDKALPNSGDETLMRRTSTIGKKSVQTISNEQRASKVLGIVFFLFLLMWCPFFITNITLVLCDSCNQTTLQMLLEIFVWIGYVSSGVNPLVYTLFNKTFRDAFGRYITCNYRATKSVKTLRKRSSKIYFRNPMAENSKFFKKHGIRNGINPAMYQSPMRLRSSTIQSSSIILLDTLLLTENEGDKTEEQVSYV", "test": "Binding affinity to 5-HT2B (unknown origin) assessed as equilibrium binding constant"}, "[2]": {"biological_target": "5-hydroxytryptamine receptor 2B (Rattus norvegicus, UniProt P30994)", "sequence (P30994 whole entry)": "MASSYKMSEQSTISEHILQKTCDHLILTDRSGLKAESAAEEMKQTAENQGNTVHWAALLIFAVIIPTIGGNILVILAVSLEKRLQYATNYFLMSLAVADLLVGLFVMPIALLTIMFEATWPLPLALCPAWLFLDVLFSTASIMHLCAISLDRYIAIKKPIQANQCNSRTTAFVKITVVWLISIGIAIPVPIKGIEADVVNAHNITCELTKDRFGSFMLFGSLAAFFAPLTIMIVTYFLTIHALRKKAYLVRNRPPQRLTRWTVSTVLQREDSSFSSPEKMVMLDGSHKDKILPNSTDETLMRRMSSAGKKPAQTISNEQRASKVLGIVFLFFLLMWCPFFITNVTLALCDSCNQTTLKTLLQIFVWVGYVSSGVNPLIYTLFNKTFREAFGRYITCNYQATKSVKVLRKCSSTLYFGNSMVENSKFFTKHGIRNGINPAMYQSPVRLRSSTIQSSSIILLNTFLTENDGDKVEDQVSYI", "test": "Displacement of [3H]-ketanserin from rat 5-HT2B expressed in mouse NIH/3T3 cells assessed as inhibition constant by Cheng-Prusoff equation analysis", "assay_type": "cell-based"}, "[3]": {"biological_target": "T1, Amine oxidase [flavin-containing] A (Homo sapiens, UniProt P21397)", "T1 sequence (P21397 whole entry)": "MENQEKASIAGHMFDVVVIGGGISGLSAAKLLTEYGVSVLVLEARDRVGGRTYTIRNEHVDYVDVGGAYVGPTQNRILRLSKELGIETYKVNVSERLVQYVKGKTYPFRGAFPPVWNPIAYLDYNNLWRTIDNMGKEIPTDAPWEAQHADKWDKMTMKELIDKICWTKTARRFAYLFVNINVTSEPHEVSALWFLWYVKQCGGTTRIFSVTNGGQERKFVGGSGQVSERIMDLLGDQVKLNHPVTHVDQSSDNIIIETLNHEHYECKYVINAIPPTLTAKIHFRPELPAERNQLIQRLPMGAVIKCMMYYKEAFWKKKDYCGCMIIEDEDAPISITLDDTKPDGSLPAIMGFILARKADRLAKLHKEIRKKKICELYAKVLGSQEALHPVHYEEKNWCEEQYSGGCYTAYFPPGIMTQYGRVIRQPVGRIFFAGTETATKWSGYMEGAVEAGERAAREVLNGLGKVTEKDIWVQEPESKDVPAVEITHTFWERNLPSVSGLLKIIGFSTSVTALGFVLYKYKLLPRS", "test": "Inhibition of MAO-A (unknown origin)"}, "Acetylcholinesterase [4]": {"biological_target": "T2, Acetylcholinesterase (Homo sapiens, UniProt P22303)", "T2 sequence (P22303 whole entry)": "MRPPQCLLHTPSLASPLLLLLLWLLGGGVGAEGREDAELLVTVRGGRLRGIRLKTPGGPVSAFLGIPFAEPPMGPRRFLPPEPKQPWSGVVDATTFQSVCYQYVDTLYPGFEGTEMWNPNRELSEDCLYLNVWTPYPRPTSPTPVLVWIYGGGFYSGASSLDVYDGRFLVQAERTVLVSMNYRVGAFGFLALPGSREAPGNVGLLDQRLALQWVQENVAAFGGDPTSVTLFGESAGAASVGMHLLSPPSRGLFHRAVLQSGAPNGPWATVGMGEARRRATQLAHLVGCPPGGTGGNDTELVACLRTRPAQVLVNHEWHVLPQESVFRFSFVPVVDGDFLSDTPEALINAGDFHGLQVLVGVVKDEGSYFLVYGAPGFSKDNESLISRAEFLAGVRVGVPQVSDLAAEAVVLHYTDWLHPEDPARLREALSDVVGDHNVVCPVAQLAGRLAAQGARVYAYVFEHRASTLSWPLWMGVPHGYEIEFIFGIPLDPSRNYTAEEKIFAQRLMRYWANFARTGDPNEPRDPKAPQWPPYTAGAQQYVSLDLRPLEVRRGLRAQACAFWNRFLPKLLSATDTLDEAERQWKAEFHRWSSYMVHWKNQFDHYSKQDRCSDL", "test": "Inhibition of AChE (unknown origin) incubated for 40 mins by Ellman's method"}, "[5]": {"biological_target": "Gamma-aminobutyric acid receptor subunit alpha-4 (Homo sapiens, UniProt P48169)", "sequence (P48169 whole entry)": "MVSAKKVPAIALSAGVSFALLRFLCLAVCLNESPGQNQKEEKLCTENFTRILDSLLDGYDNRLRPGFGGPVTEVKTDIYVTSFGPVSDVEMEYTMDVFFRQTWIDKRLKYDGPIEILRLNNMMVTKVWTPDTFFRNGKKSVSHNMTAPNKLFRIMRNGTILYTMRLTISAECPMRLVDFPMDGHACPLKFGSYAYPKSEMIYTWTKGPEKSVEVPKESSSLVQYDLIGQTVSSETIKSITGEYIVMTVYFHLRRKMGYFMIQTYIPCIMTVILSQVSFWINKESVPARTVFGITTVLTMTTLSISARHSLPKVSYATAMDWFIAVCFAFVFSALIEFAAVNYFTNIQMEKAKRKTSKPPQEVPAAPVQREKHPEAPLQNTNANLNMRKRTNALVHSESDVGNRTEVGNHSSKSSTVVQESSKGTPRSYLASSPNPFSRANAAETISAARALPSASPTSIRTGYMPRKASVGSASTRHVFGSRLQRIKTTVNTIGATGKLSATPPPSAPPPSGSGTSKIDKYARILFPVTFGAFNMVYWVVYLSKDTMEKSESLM", "test": "Binding affinity to human recombinant GABAA alpha4 receptor assessed as inhibition constant incubated for 1 hrs by liquid scintillation counting analysis"}, "[6]": {"biological_target": "T3, Gamma-aminobutyric acid receptor subunit alpha-2 (Homo sapiens, UniProt P47869)", "T3 sequence (P47869 whole entry)": "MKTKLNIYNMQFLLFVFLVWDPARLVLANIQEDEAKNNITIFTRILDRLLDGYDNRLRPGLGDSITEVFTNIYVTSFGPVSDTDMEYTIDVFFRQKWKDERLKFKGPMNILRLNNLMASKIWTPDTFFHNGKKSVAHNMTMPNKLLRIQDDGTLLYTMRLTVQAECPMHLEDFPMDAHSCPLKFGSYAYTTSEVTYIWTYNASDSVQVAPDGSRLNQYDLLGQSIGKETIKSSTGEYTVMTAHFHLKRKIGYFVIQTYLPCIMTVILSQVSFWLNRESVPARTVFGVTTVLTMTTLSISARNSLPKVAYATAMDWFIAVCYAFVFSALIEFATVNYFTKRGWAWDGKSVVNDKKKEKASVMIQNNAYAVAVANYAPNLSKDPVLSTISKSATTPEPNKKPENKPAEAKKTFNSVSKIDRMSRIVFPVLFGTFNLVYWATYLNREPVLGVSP", "test": "Binding affinity to human recombinant GABAA alpha2 receptor assessed as inhibition constant incubated for 1 hrs by liquid scintillation counting analysis"}, "[7]": {"biological_target": "T4, Gamma-aminobutyric acid receptor subunit alpha-3 (Homo sapiens, UniProt P34903)", "T4 sequence (P34903 whole entry)": "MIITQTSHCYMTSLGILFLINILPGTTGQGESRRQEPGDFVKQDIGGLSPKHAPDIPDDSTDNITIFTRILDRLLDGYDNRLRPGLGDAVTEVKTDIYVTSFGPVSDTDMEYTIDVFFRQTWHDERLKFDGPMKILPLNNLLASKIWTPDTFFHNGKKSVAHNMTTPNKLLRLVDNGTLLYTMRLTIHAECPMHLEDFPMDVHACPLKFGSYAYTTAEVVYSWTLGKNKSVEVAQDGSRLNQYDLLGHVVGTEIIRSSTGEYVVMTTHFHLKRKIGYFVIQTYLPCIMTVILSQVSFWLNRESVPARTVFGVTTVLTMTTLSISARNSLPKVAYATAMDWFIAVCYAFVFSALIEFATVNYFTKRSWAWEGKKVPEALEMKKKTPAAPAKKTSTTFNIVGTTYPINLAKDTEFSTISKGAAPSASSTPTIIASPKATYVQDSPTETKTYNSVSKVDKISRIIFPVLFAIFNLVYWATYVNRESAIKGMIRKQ", "test": "Binding affinity to human recombinant GABAA alpha3 receptor assessed as inhibition constant incubated for 1 hrs by liquid scintillation counting analysis"}, "[8]": {"biological_target": "GABA-A receptor; anion channel", "test": "Displacement of [3H]flunitrazepam from GABAA (unknown origin ) receptor by radioligand binding assay", "assay_type": "protein-complex assay, Homo sapiens"}, "[9]": {"biological_target": "Gamma-aminobutyric acid receptor subunit alpha-6 (Homo sapiens, UniProt Q16445)", "sequence (Q16445 whole entry)": "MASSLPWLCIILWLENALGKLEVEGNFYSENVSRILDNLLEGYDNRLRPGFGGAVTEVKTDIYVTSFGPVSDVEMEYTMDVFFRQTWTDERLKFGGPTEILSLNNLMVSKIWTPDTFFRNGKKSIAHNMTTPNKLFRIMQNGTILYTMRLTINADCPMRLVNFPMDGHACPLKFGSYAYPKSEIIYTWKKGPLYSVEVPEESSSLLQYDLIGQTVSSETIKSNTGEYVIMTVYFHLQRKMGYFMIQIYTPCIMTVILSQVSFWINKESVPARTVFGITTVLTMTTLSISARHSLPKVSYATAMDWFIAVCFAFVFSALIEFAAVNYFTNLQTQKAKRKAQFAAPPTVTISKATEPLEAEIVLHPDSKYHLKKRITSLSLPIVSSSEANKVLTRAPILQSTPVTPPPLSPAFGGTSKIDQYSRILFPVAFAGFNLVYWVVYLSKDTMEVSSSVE", "test": "Binding affinity to human recombinant GABAA alpha6 receptor assessed as inhibition constant incubated for 1 hrs by liquid scintillation counting analysis"}, "[10]": {"biological_target": "T5, Gamma-aminobutyric acid receptor subunit alpha-5 (Homo sapiens, UniProt P31644)", "T5 sequence (P31644 whole entry)": "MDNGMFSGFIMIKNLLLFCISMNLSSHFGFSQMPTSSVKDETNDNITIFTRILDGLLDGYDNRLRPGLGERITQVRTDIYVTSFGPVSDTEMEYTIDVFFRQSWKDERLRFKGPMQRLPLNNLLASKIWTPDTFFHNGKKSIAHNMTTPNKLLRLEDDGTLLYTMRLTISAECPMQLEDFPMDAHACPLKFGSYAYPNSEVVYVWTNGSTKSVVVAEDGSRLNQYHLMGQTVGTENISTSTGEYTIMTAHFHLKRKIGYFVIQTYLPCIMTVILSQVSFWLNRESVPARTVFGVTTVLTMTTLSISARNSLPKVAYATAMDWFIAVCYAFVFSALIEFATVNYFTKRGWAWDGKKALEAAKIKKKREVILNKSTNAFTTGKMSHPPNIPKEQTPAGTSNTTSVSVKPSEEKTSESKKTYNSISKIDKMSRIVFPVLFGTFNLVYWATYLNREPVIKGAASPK", "test": "Binding affinity to human recombinant GABAA alpha5 receptor assessed as inhibition constant incubated for 1 hrs by liquid scintillation counting analysis"}, "[11]": {"biological_target": "GABA-A receptor; anion channel", "test": "Inhibition of GABAA receptor (unknown origin)", "assay_type": "protein-complex assay, Homo sapiens"}, "Cholinesterase [12]": {"biological_target": "T6, Cholinesterase (Homo sapiens, UniProt P06276)", "T6 sequence (P06276 whole entry)": "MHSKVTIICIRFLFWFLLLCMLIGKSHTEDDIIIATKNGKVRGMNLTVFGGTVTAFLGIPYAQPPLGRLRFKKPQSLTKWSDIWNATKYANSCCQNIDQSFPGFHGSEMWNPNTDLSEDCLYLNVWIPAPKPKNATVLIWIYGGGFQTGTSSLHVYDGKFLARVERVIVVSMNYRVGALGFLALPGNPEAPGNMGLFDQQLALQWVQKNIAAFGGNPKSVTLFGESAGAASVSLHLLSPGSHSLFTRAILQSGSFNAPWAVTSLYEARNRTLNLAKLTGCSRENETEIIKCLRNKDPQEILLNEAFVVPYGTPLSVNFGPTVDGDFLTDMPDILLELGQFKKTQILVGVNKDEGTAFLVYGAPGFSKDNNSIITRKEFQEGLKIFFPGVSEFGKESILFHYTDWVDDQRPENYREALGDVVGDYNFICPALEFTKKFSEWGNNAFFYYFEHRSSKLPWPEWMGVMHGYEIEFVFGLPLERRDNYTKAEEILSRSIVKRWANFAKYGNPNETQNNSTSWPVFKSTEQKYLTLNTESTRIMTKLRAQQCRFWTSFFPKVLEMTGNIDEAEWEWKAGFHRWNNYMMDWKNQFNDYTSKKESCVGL", "test": "Inhibition of BuChE (unknown origin) using acetylthiocholine iodide as substrate incubated for 20 mins followed by substrate addition by Ellman's method"}, "Acetylcholinesterase [13]": {"biological_target": "T2, Acetylcholinesterase", "test": "Inhibition of AChE (unknown origin) using acetylthiocholine iodide as substrate incubated for 20 mins followed by substrate addition by Ellman's method"}, "Acetylcholinesterase [14]": {"biological_target": "T2, Acetylcholinesterase", "test": "Inhibition of AChE (unknown origin)"}, "Cholinesterase [15]": {"biological_target": "T6, Cholinesterase", "test": "Inhibition of BuChE (unknown origin)"}, "[16]": {"biological_target": "T7, Gamma-aminobutyric acid receptor subunit alpha-1 (Homo sapiens, UniProt P14867)", "T7 sequence (P14867 whole entry)": "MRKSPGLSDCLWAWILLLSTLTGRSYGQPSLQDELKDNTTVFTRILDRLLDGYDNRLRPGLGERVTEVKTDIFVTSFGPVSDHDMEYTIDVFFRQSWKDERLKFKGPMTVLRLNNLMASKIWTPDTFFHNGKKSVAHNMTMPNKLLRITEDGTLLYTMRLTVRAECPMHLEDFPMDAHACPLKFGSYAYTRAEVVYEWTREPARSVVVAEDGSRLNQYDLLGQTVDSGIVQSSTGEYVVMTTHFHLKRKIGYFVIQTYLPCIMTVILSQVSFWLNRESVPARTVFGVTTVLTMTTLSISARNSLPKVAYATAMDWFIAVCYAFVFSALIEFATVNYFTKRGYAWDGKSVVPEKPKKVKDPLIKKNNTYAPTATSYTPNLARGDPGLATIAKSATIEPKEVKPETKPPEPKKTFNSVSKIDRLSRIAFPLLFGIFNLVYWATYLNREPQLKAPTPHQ", "test": "Binding affinity to human recombinant GABAA alpha1 receptor assessed as inhibition constant incubated for 1 hrs by liquid scintillation counting analysis"}}, "note": "pIC50, pKi: −log10 of the molar value. Where “and” joins values, the source holds several entries; their conditions need not be identical. Identical values can stand only once."}
{"smiles": "COc1ccc(CC2NCCc3c2[nH]c2c(C)cc(C)cc32)cc1OC", "note": "(stereo unspecified)", "values": [{"measurement": "Kb", "setting": "[1]", "result": "< 0.3 nM and 0.08 nM"}, {"measurement": "pKi", "setting": "[2]", "result": 9.70}]}
{"smiles": "COc1ccc(CC2NCCc3c2[nH]c2cccc(C)c32)cc1OC", "note": "(stereo unspecified)", "values": [{"measurement": "Kb", "setting": "[1]", "result": 0.08, "unit": "nM"}, {"measurement": "pKi", "setting": "[2]", "result": 10.00}]}
{"smiles": "COc1ccc(CC2NCCc3c2[nH]c2ccc(C)cc32)c(Cl)c1OC", "note": "(stereo unspecified)", "values": [{"measurement": "Kb", "setting": "[1]", "result": "< 0.3", "unit": "nM"}, {"measurement": "pKi", "setting": "[2]", "result": 9.70}]}
{"smiles": "CCCn1c2cc(OCc3cn(Cc4ccccc4Cl)nn3)ccc2c2ccnc(C)c21", "values": [{"measurement": "pIC50", "setting": "[3]", "result": 6.59}]}
{"smiles": "c1ccc2c(CC3NCCc4c3[nH]c3ccccc43)cccc2c1", "note": "(stereo unspecified)", "values": [{"measurement": "Kb", "setting": "[1]", "result": 0.4, "unit": "nM"}, {"measurement": "pKi", "setting": "[2]", "result": 9.40}]}
{"smiles": "Cc1ccc([N+]2=Cc3c(c4ccccc4n3C)CC2)cc1", "values": [{"measurement": "pIC50", "setting": "Acetylcholinesterase [4]", "result": 5.82}]}
{"smiles": "CCCOc1cc2c(cn1)[nH]c1ccccc12", "values": [{"measurement": "pKi", "setting": "[5]", "result": 6.00}, {"measurement": "pKi", "setting": "[6]", "result": 7.28}, {"measurement": "pKi", "setting": "[7]", "result": 7.16}, {"measurement": "pIC50", "setting": "[8]", "result": 8.52}, {"measurement": "pKi", "setting": "[9]", "result": "< 6.00"}, {"measurement": "pKi", "setting": "[10]", "result": 6.23}]}
{"smiles": "Cn1c2c(c3ccccc31)CC[N+](c1ccc(Br)cc1)=C2", "values": [{"measurement": "pIC50", "setting": "Acetylcholinesterase [4]", "result": 5.82}]}
{"smiles": "COCc1c(C(=O)OC(C)C)ncc2[nH]c3ccc4nccnc4c3c12", "values": [{"measurement": "pIC50", "setting": "[11]", "result": 9.10}]}
{"smiles": "C=CCOc1ccc2c(c1)[nH]c1c(C)nccc12", "values": [{"measurement": "pIC50", "setting": "[3]", "result": 8.30}]}
{"smiles": "Brc1ccc2[nH]c3cnc4c5ccccc5[nH]c4c3c2c1", "values": [{"measurement": "pIC50", "setting": "[11]", "result": 8.40}]}
{"smiles": "O=C1c2ccccc2-[n+]2ccc3c([nH]c4ccccc43)c21", "note": "[FASCAPLYSIN]", "values": [{"measurement": "pIC50", "setting": "Cholinesterase [12]", "result": 4.05}, {"measurement": "pIC50", "setting": "Acetylcholinesterase [13]", "result": 5.82}]}
{"smiles": "Cn1c2ccccc2c2cc[n+](-c3ccc(I)cc3)cc21", "values": [{"measurement": "pIC50", "setting": "Acetylcholinesterase [14]", "result": "6.62 and 6.52"}, {"measurement": "pIC50", "setting": "Acetylcholinesterase [4]", "result": 6.62}, {"measurement": "pIC50", "setting": "Cholinesterase [15]", "result": "4.49 and 3.94"}]}
{"smiles": "COc1ccc(CC2NCCc3c2[nH]c2ccc(C)cc32)c(Br)c1OC", "note": "(stereo unspecified)", "values": [{"measurement": "Kb", "setting": "[1]", "result": "< 0.3", "unit": "nM"}, {"measurement": "pKi", "setting": "[2]", "result": 9.70}]}
{"smiles": "C#Cc1ccc2[nH]c3cnc(C(=O)OC(C)(C)C)cc3c2c1", "values": [{"measurement": "pKi", "setting": "[5]", "result": 5.70}, {"measurement": "pKi", "setting": "[7]", "result": 7.00}, {"measurement": "pKi", "setting": "[9]", "result": 5.70}, {"measurement": "pKi", "setting": "[16]", "result": 9.00}, {"measurement": "pKi", "setting": "[10]", "result": 6.68}]}
{"smiles": "Cc1nccc2c1[nH]c1cc(CO)ccc12", "values": [{"measurement": "pIC50", "setting": "[3]", "result": 7.40}]}
{"smiles": "Cc1nccc2c1[nH]c1cc(OCCCC(F)(F)F)ccc12", "values": [{"measurement": "pIC50", "setting": "[3]", "result": 8.30}]}
{"smiles": "c1ccc2c(c1)CN1CCc3c([nH]c4ccccc34)C1=N2", "values": [{"measurement": "pIC50", "setting": "Cholinesterase [12]", "result": 6.30}, {"measurement": "pIC50", "setting": "Acetylcholinesterase [13]", "result": 5.47}]}
{"smiles": "CN1c2ccc(OCc3ccccc3)cc2C(=O)N2CCc3c([nH]c4ccccc34)C21", "note": "(stereo unspecified)", "values": [{"measurement": "pIC50", "setting": "Cholinesterase [12]", "result": 6.06}, {"measurement": "pIC50", "setting": "Acetylcholinesterase [13]", "result": 5.52}]}
{"smiles": "COCc1ccc2c(c1)[nH]c1c(C)nccc12", "values": [{"measurement": "pIC50", "setting": "[3]", "result": 7.52}]}
{"smiles": "Cc1nccc2c1[nH]c1cc(OCCc3ccccc3)ccc12", "values": [{"measurement": "pIC50", "setting": "[3]", "result": 8.30}]}
{"smiles": "COc1ccc2c3ccnc(C)c3n(C)c2c1", "values": [{"measurement": "pIC50", "setting": "[3]", "result": 7.96}]}
